Laboratory results as given in patent US10975037B2 (priority 2018, dated 2021).
Structures can show the parent of a compound that is named as a salt. Where two headings read alike, the source gives them in different places. Marks after values point to notes of the source that are not given here.

Columns and labels:
[1] = system: IL-17 production by CD4 T cells under conditions which favor Th17 differentiation; test: Human Th17 assay (IL-17 production by CD4 T cells); format: cell-based; conditions: read-out: Human Th17 Assay, IC50
Protocol: The human Th17 assay tests the effect of RORγt modulatory compounds on IL-17 production by CD4 T cells under conditions which favor Th17 differentiation. Total CD4^+ T cells were isolated from the peripheral blood mononuclear cells (PBMC) of healthy donors using a CD4^+ T cell isolation kit II, following the manufacturer's instructions (Miltenyi Biotec). […] 50 μL of compound at titrated concentrations in DMSO were added into each well at final DMSO concentration at 0.2%. Cells were incubated for 1 hour, then 50 μL of Th17 cell differentiation medium was added to each well. […] Cells were cultured at 37° C. and 5% CO2 for 3 days. Supernatants were collected and the accumulated IL-17 in culture was measured by using MULTI-SPOT® Cytokine Plate following manufacture's instruction (Meso Scale Discovery). The plate was read using Sector Imager 6000, and IL-17 concentration was extrapolated from the standard curve. The IC50s were determined by GraphPad.

[2] = molecular target: full-length human RORγt (Homo sapiens (Human), UniProt P51449); test: RORγt (full-length human) reporter assay, conditions A or B, HEK293T cells; format: cell-based; conditions: for inhibition at 6 µM: read-out: RORγt (FL) Reporter Assay A or B, % inhibition @ 6 μM, 6 μM compound concentration
Chain of full-length human RORγt (P51449 other isoform, or with tags, fused parts or gaps): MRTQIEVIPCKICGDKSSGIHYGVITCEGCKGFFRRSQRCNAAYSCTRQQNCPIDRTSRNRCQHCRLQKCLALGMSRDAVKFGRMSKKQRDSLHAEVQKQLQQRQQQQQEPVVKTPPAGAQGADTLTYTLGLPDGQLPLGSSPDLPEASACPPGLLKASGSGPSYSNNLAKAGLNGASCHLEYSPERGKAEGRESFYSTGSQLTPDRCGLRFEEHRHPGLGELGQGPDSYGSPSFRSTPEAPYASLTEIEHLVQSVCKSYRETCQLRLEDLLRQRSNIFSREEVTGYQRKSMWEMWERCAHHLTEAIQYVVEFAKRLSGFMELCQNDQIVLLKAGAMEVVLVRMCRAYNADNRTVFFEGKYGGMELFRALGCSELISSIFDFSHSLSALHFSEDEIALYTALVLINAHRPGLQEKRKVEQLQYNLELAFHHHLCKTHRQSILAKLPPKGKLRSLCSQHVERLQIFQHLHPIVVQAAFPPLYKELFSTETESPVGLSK
Procedure, shortened: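 After 16–20 h, dual firefly/Renilla luciferase luminescence was read. Firefly signal was normalized to DMSO and saturating reference compound, then to Renilla, and fitted for IC50; % inhibition is versus DMSO.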

[3] = molecular target: human RORγt ligand binding domain (RORγt LBD) (Homo sapiens (Human), UniProt P51449); test: RORγt ThermoFluor® assay (thermal shift binding)
Chain of human RORγt ligand binding domain (RORγt LBD) (P51449 other isoform, or with tags, fused parts or gaps): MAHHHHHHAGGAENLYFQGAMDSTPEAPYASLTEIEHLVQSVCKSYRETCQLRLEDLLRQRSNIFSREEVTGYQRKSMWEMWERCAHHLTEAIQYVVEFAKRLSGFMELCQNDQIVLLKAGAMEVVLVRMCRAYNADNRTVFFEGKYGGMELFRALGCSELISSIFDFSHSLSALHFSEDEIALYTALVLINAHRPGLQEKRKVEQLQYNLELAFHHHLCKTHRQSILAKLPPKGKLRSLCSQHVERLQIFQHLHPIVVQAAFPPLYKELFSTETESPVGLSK
Procedure, shortened: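 Thermal shift with 0.065 mg/mL RORγt LBD and 60 μM 1,8-ANS in 100 mM Hepes pH 7.0, 10 mM NaCl, 2.5 mM GSH, 0.002% Tween-20.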

[4] = RORγt (FL) Reporter Assay A or B, IC50, HEK293T cells
[5] = HEK-293T, 0.67 μM compound concentration (footnote ****), read-out: RORγt (FL) Reporter Assay A or B, % inhibition
[6] = read-out: ThermoFluor® Assay, Kd
[7] = 3 μM compound concentration (footnote *)
[8] = HEK293T cells, read-out: RORγt (FL) Reporter Assay A or B, IC50

| Structure (SMILES) | inhibition at 6 µM ([2]; HEK-293T) [%] | IC50 [2, 4] [nM] | Kd ([3]; ThermoFluor® Assay, Kd) [nM] | Kd [3, 6] [nM] | IC50 ([1]; Homo sapiens, CD4+ T) [nM] | other results |
| --- | --- | --- | --- | --- | --- | --- |
| COc1cc(N[C@H](C)C(F)(F)F)ccc1-c1c(Cl)c(C(=O)NC[C@H]2CC[C@H](S(C)(=O)=O)CC2)nn1CCC#N [Example 129, 4-Chloro-1-(2-cyanoethyl)-5-(2-methoxy-4-(((R)-1,1,1-trifluoropropan-2-yl)amino)phenyl)-N-(((1r,4R)-4-(methylsulfonyl)cyclohexyl)methyl)-1H-pyrazole-3-carboxamide] | 102 | 810 | 72 |  | 2300 |  |
| CCn1nc(C(=O)NC[C@]2(O)CC[C@@H](S(C)(=O)=O)CC2)c(Cl)c1-c1ccc(CC(C)C(F)(F)F)cc1OC(F)(F)F (some centres unmarked) [Example 191, 4-Chloro-1-ethyl-N-(((1s,4s)-1-hydroxy-4-(methylsulfonyl)cyclohexyl)methyl)-5-(4-(3,3,3-trifluoro-2-methylpropyl)-2-(trifluoromethoxy)phenyl)-1H-pyrazole-3-carboxamide] |  | 22 |  | 1.5 | 63 | inhibition at 0.67 µM [2, 5]: 69% |
| CCn1nc(C(=O)NC[C@H]2CC[C@H](S(C)(=O)=O)CC2)c(Cl)c1-c1ccc(CCC(F)(F)F)cc1OC(F)F [Example 222, 4-Chloro-5-(2-(difluoromethoxy)-4-(3,3,3-trifluoropropyl)phenyl)-1-ethyl-N-(((1r,4r)-4-(methylsulfonyl)cyclohexyl)methyl)-1H-pyrazole-3-carboxamide] |  |  |  | 0.75 |  | IC50 [1]: 11 nM; RORγt (FL) Reporter Assay A or B, % inhibition [2, 7]: 101* %; IC50 [2, 8]: 6.2 nM |
| CCn1nc(C(=O)NC[C@H]2CC[C@H](S(C)(=O)=O)CC2)c(Cl)c1-c1ccc(CC(C)(C)C(F)(F)F)cc1Cl [Example 165, 4-Chloro-5-(2-chloro-4-(3,3,3-trifluoro-2,2-dimethylpropyl)phenyl)-1-ethyl-N-(((1r,4r)-4-(methylsulfonyl)cyclohexyl)methyl)-1H-pyrazole-3-carboxamide] |  | 8 |  | 0.45 | 13 | inhibition at 0.07 µM ([2]; HEK-293T, 0.07 μM compound concentration (footnote *********), read-out: RORγt (FL) Reporter Assay A or B, % inhibition): 52% |
| CCn1nc(C(=O)NC[C@]2(N)CC[C@@H](S(C)(=O)=O)CC2)c(Cl)c1-c1ccc(CC(C)(C)C(F)(F)F)cc1OC(F)F [Example 19, N-(((1s*,4s*)-1-Amino-4-(methylsulfonyl)cyclohexyl)methyl)-4-chloro-5-(2-(difluoromethoxy)-4-(3,3,3-trifluoro-2,2-dimethylpropyl)phenyl)-1-ethyl-1H-pyrazole-3-carboxamide 2,2,2-trifluoroacetic acid salt] |  |  |  |  | 14 | inhibition at 3 µM ([2]; HEK-293T, 3 μM compound concentration (footnote *), read-out: RORγt (FL) Reporter Assay A or B, % inhibition): 122% |
| CCn1nc(C(=O)NC[C@H]2CC[C@H](S(C)(=O)=O)CC2)c(Cl)c1-c1ccc(CC(C)(C)C(F)(F)F)cc1OC [Example 44, 4-chloro-1-ethyl-5-(2-methoxy-4-(3,3,3-trifluoro-2,2-dimethylpropyl)phenyl)-N-(((1r,4r)-4-(methylsulfonyl)cyclohexyl)methyl)-1H-pyrazole-3-carboxamide] |  |  |  |  | 5.2 | inhibition at 0.67 µM [2, 5]: 96% |
| CCn1nc(C(=O)NC[C@H]2CC[C@H](S(C)(=O)=O)CC2)c(Cl)c1-c1ccc(CCC(F)(F)F)cc1OC [Example 38, 4-Chloro-1-ethyl-5-(2-methoxy-4-(3,3,3-trifluoropropyl)phenyl)-N-(((1r,4r)-4-(methylsulfonyl)cyclohexyl)methyl)-1H-pyrazole-3-carboxamide] |  | 12 |  | 3.3 |  | inhibition at 0.67 µM ([2]; HEK-293T, read-out: RORγt (FL) Reporter Assay A or B, % inhibition): 84% |
| CCn1nc(C(=O)NC[C@H]2CC[C@H](S(=O)(=O)NC(C)=O)CC2)c(Cl)c1-c1ccc(CC(C)(C)C(F)(F)F)cc1OC(F)F [Example 68, N-(((1r,4r)-4-(N-Acetylsulfamoyl)cyclohexyl)methyl)-4-chloro-5-(2-(difluoromethoxy)-4-(3,3,3-trifluoro-2,2-dimethylpropyl)phenyl)-1-ethyl-1H-pyrazole-3-carboxamide] |  |  |  | 0.7 |  | RORγt (FL) Reporter Assay A or B, % inhibition [2, 7]: 97* %; IC50 [2, 8]: 39 nM |
| CCn1nc(C(=O)NC[C@]2(C#N)CC[C@@H](S(C)(=O)=O)CC2)c(Cl)c1-c1ccc(CC(C)(C)C(F)(F)F)cc1OC(F)F [Example 134, 4-Chloro-N-(((1s*,4s*)-1-cyano-4-(methylsulfonyl)cyclohexyl)methyl)-5-(2-(difluoromethoxy)-4-(3,3,3-trifluoro-2,2-dimethylpropyl)phenyl)-1-ethyl-1H-pyrazole-3-carboxamide] |  | 1.3 |  | 0.2 |  | inhibition at […] ([2]; HEK-293T, 0.22 μM compound concentration (footnote *******), read-out: RORγt (FL) Reporter Assay A or B, % inhibition): 102% |

Further lines, with some results ahead:

| inhibition at 6 µM ([2]; HEK-293T) [%] | IC50 [2, 4] [nM] | Kd ([3]; ThermoFluor® Assay, Kd) [nM] | Kd [3, 6] [nM] | Structure (SMILES) | IC50 ([1]; Homo sapiens, CD4+ T) [nM] | other results |
| --- | --- | --- | --- | --- | --- | --- |
| 67 | 2200 | 1300 |  | CCn1nc(C(=O)NC[C@H]2CC[C@@H](S(C)(=O)=O)CO2)c(Cl)c1-c1ccc(N[C@H](C)C(F)(F)F)cc1OC (relative stereo) [Example 17, 4-Chloro-1-ethyl-5-(2-methoxy-4-(((R)-1,1,1-trifluoropropan-2-yl)amino)phenyl)-N-(((2R*,5R*)-5-(methylsulfonyl)tetrahydro-2H-pyran-2-yl)methyl)-1H-pyrazole-3-carboxamide] |  |  |
| 106 | 830 | 43 |  | CCn1nc(C(=O)NC[C@]2(C(=O)O)CC[C@H](S(C)(=O)=O)CC2)c(Cl)c1-c1ccc(CC(C)(C)C(F)(F)F)cc1OC(F)F [Example 121, (1r*,4r*)-1-((4-Chloro-5-(2-(difluoromethoxy)-4-(3,3,3-trifluoro-2,2-dimethylpropyl)phenyl)-1-ethyl-1H-pyrazole-3-carboxamido)methyl)-4-(methylsulfonyl)cyclohexane-1-carboxylic Acid] |  |  |
|  | 30 | 11 |  | CCn1nc(C(=O)NC[C@]2(CO)CC[C@@H](S(C)(=O)=O)CC2)c(Cl)c1-c1ccc(N[C@H](C)C(F)(F)F)cc1OC (relative stereo) [Example 93, 4-Chloro-1-ethyl-N-(((1s*,4S*)-1-(hydroxymethyl)-4-(methylsulfonyl)cyclohexyl)methyl)-5-(2-methoxy-4-(((R)-1,1,1-trifluoropropan-2-yl)amino)phenyl)-1H-pyrazole-3-carboxamide] |  | inhibition at 2 µM ([2]; HEK-293T, 2 μM compound concentration, read-out: RORγt (FL) Reporter Assay A or B, % inhibition): 96% |
| 6 | > 6000 |  | 3000 | CCn1nc(C(=O)NC[C@]2(C(N)=O)CC[C@H](S(C)(=O)=O)CC2)c(Cl)c1-c1ccc(N[C@H](C)C(F)(F)F)cc1OC [Example 34, N-(((1r,4R)-1-carbamoyl-4-(methylsulfonyl)cyclohexyl)methyl)-4-chloro-1-ethyl-5-(2-methoxy-4-(((R)-1,1,1-trifluoropropan-2-yl)amino)phenyl)-1H-pyrazole-3-carboxamide] |  |  |
| 102 | 830 | 240 |  | CCn1nc(C(=O)NC[C@@H]2CC[C@H](S(C)(=O)=O)CO2)c(Cl)c1-c1ccc(N[C@H](C)C(F)(F)F)cc1OC (relative stereo) [Example 18, 4-Chloro-1-ethyl-5-(2-methoxy-4-(((R)-1,1,1-trifluoropropan-2-yl)amino)phenyl)-N-(((2S*,5S*)-5-(methylsulfonyl)tetrahydro-2H-pyran-2-yl)methyl)-1H-pyrazole-3-carboxamide] |  |  |
